For 13 compounds, TGI and GI50 results are on record in PubChem BioAssay (NCI).

The structures appear in SMILES notation. “And” between values parts separate entries of the source, which are not always exact repeats. Identical values can stand only once.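 Values below derive from 48-hour exposures of cells grown in 96-well plates, with endpoints linearly interpolated between the two concentrations bracketing the appropriate inhibition level. GI50 = concentration required for 50% inhibition of growth. TGI is the concentration that stops growth completely.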 Bounds are passed on as bounds.

Among the test systems are SK-MEL-2 melanoma; RPMI-8226 leukemia; HOP-62 NSCLC; OVCAR-4 ovarian; LOX IMVI melanoma; HT29 colon; BT-549 breast; MDA-MB-231 breast; DU-145 prostate; MCF7 breast.
Test in all cases: NCI-60 cell line screen, 48 h

Consider `CC(N)Cc1ccc(Cl)cc1` (centres undefined), for which the TGI in the assay with SK-MEL-2 melanoma, with RPMI-8226 leukemia, in the assay with HOP-62 NSCLC, with OVCAR-4 ovarian, in the assay with LOX IMVI melanoma and in the assay with HT29 colon was above 100 µM each time.

`O=C(Nc1cc(Cl)ccc1Cl)c1cc2cccc(Br)c2oc1=O`: the TGI with SK-MEL-2 melanoma, in the assay on RPMI-8226 leukemia, in the assay on HOP-62 NSCLC, in the assay with LOX IMVI melanoma and with HT29 colon was above 100 µM in each case.

For the compound `COc1ccc2c3c(c(C(=O)O)oc13)CCC2`, the TGI in the assay on SK-MEL-2 melanoma, with RPMI-8226 leukemia, in the assay with HOP-62 NSCLC, in the assay on OVCAR-4 ovarian, in the assay on LOX IMVI melanoma and in the assay with HT29 colon was above 100 µM throughout.

As to `O=c1cc(-c2ccccc2)oc2ccc(OC/C(=N/O)c3ccc(F)cc3)cc12`, the GI50 with SK-MEL-2 melanoma is 12.3 µM; in the assay on BT-549 breast, 1.01 µM; with RPMI-8226 leukemia it was 3 µM; with HOP-62 NSCLC, 8.79 µM; in the assay with OVCAR-4 ovarian, 25.3 µM; with MDA-MB-231 breast it was 6.16 µM. Besides, the GI50 in the assay on DU-145 prostate is 3.1 µM; in the assay with LOX IMVI melanoma, 5.46 µM; in the assay with HT29 colon, 2.1 µM. Moreover, the TGI is above 50 µM in the assay with SK-MEL-2 melanoma; 2.67 µM in the assay on BT-549 breast; 14.9 µM in the assay with RPMI-8226 leukemia; above 50 µM in the assay on HOP-62 NSCLC; above 50 µM in the assay with OVCAR-4 ovarian; 27.2 µM in the assay with MDA-MB-231 breast. Also, the TGI was 15.6 µM in the assay on DU-145 prostate, 12.3 µM in the assay with LOX IMVI melanoma and 41.6 µM in the assay with HT29 colon.

`Cc1cc2c(c3nocc13)C(=O)c1ccccc1C2=O`: the TGI in the assay on SK-MEL-2 melanoma, with RPMI-8226 leukemia, in the assay on HOP-62 NSCLC, in the assay with OVCAR-4 ovarian, with LOX IMVI melanoma and in the assay on HT29 colon was above 100 µM in each case.

Turning to `O=C1NC(=O)[C@@]2(CC[C@@H](O)C2)c2ccncc21`, the TGI with SK-MEL-2 melanoma, in the assay on BT-549 breast, in the assay on OVCAR-4 ovarian, in the assay on MDA-MB-231 breast, with DU-145 prostate and in the assay on LOX IMVI melanoma was above 100 µM in each case. Also, the TGI in the assay with MCF7 breast and in the assay with HT29 colon was above 100 µM throughout.

In the case of `Cc1ccc2[nH]c3c(c2c1)N=c1ccccc1=NO3`, the GI50 in the assay with SK-MEL-2 melanoma was above 100 µM; in the assay with BT-549 breast, 14.2 µM; in the assay with RPMI-8226 leukemia, above 100 µM; in the assay with OVCAR-4 ovarian, 27.9 µM; with MDA-MB-231 breast, 35.9 µM; in the assay on DU-145 prostate it was 34.6 µM. Moreover, the GI50 with LOX IMVI melanoma is 97.8 µM; with HT29 colon, 76.1 µM. In addition, the TGI with SK-MEL-2 melanoma is above 100 µM; in the assay on BT-549 breast, 51.6 µM; in the assay with RPMI-8226 leukemia, above 100 µM; with OVCAR-4 ovarian, above 100 µM; with MDA-MB-231 breast it was above 100 µM; in the assay with DU-145 prostate, above 100 µM. Further, the TGI in the assay on LOX IMVI melanoma and in the assay with HT29 colon was above 100 µM throughout.

On to `CN(C)CCNC(=O)c1cccc2nc3ccc4cccnc4c3nc12`, for which the TGI in the assay on SK-MEL-2 melanoma stood at 2.11 µM; with HOP-62 NSCLC, 1.86 µM; with OVCAR-4 ovarian it was 3.21 µM; with LOX IMVI melanoma, 1.51 µM; with HT29 colon it was 4.88 µM.

For the compound `COC1=CC(=O)C(Br)=CC1=O`, the TGI in the assay with SK-MEL-2 melanoma was 45.7 µM; in the assay with RPMI-8226 leukemia it was 50.6 µM; in the assay with HOP-62 NSCLC, above 100 µM; in the assay on OVCAR-4 ovarian it was 32.1 µM; with LOX IMVI melanoma, 34.3 µM; with HT29 colon, 35.6 µM.

Take `O=C1NC(=O)C(=Cc2c3ccccc3cc3ccccc23)C(=O)N1`: the TGI in the assay on RPMI-8226 leukemia, with HOP-62 NSCLC, in the assay on LOX IMVI melanoma and in the assay with HT29 colon was above 100 µM throughout.

`CC(C)=O.O=C([O-])C(F)(F)F.O=C([O-])C(F)(F)F.O=C([O-])C(F)(F)F.O=C([O-])C(F)(F)F.[Rh+2].[Rh+2]`: the GI50 was 33.2 µM in the assay on RPMI-8226 leukemia; above 100 µM in the assay with HOP-62 NSCLC; 69.7 µM with OVCAR-4 ovarian; 53.3 µM in the assay with LOX IMVI melanoma; above 100 µM with HT29 colon. In addition, the TGI in the assay on RPMI-8226 leukemia, with HOP-62 NSCLC, with OVCAR-4 ovarian, in the assay with LOX IMVI melanoma and in the assay with HT29 colon was above 100 µM in each case.

Consider `C#CCN(N=O)C(=O)NCCCCC(NC(=O)OCc1ccccc1)C(=O)OCc1ccccc1` (centres undefined), for which the TGI is above 100 µM in the assay on SK-MEL-2 melanoma; above 100 µM in the assay on RPMI-8226 leukemia; above 100 µM in the assay on HOP-62 NSCLC; above 100 µM in the assay with OVCAR-4 ovarian; 28 µM with LOX IMVI melanoma; above 100 µM in the assay on HT29 colon.

With `COC1CC(C)C(OC)c2cc(O)cc(c2O)NC(=O)/C(C)=C/C=C\C(C)C(OC(N)=O)/C(C)=C\C(C)C1OC` (centres undefined), the GI50 with SK-MEL-2 melanoma was 0.683 µM and 1.16 µM; in the assay with RPMI-8226 leukemia, 0.174 µM and 0.383 µM; in the assay with HOP-62 NSCLC it was 0.413 µM; in the assay on OVCAR-4 ovarian it was 2.51 µM; in the assay with MDA-MB-231 breast it was 0.291 µM and 0.243 µM and 1.16 µM; with DU-145 prostate, 1.59 µM. For the same compound, the GI50 in the assay on LOX IMVI melanoma is 0.165 µM and 0.255 µM; with MCF7 breast, 0.0482 µM; with HT29 colon it was 0.0526 µM and 0.116 µM. Also, the TGI with SK-MEL-2 melanoma is 16 µM and 11.9 µM; in the assay on RPMI-8226 leukemia, 32.4 µM and 5.93 µM; with HOP-62 NSCLC it was 36.9 µM and 12.2 µM; in the assay with OVCAR-4 ovarian, 7.87 µM and 10.1 µM; in the assay on MDA-MB-231 breast it was 10.3 µM and 8.54 µM; with DU-145 prostate it was 22.4 µM and 8.94 µM. In addition, the TGI in the assay with LOX IMVI melanoma is 1.74 µM and 6.91 µM; in the assay on MCF7 breast it was 10.5 µM; in the assay with HT29 colon, 12.2 µM and 10.3 µM.
